Read-outs that look alike come from different tables or passages of the source.
Columns and labels:
9L/LacZ bystander cells = experiment: Bystander cytotoxicity, colony formation assay; assay type: cell-based, rat
Procedure: The cytotoxicity conferred by 9L/P450 and 9L/P450/p35-9 cells on 9L/LacZ bystander cells was assayed using one of two protocols. […] Following this drug treatment cell survival was determined for each of the three cell lines (9L/P450, 9L/P450/p35-9 and 9L/LacZ) using a colony formation assay. In the experiment shown in FIGS. 6A and 6B (protocol 1) the 9L/LacZ bystander cells were plated on top of the 9L/P450 or 9L/P450/p35-9 cells, enabling the two cell populations to be in direct cell-cell contact. […]
Bystander Experiments. […] The cells were then grown in drug-free media for an additional 16 hr (i.e., 24 hr from the start of the second drug treatment), at which point the cells were trypsinized, collected, counted and replated at various densities in 6 well plates to allow for the growth of individual colonies, as follows: Drug-free control cells were replated in duplicate at 100, 150 and 250 cells/well. […] LacZ-positive colonies containing≧50 cells were counted. Cells were then re-stained with crystal violet and the total number of colonies was determined. The number of 9L/P450 or 9L/P450/p35-9 colonies on each plate was then calculated by subtracting number of the Lac Z-positive colonies from each sample. The colony efficiency (number of colonies/number of cells seeded) was then calculated for each treatment group. […]

9L/P450/p35-9 cells [1] = experiment: Colony formation assay after CPA treatment; assay type: cell-based, rat; details: 1 × 8 hr 1 mM CPA
Text: Relative colony formation activities are shown in parenthesis.

9L/P450 cells [2] = test system: 9L/P450 cells
9L/P450/p35-9 cells [3] = test system: 9L/P450/p35-9 cells
Procedure: Cells were then cultured for up to 17 days following the initial drug treatment. […] Cells remaining on the plates at each indicated time point were stained with crystal violet. Data shown are mean+/−half the range for A595 values n=2 samples at each time point.
Growth Inhibition Assay: 9L/P450 and 9L/P450-derived cells lines were plated at 1.5×10^5 cells per well in 12 well dishes in 1.5 ml media unless indicated otherwise. […] Cells remaining on the plate at the indicated times were washed twice with cold PBS and then stained with crystal violet solution, as described previously (Schwartz and Waxman, Mol Pharmacol. 60:1268-1279. (2001)). The stain was eluted from the cells and the absorbance read at 595 nm to determine the relative protein content of each sample (Jounaidi et al., Cancer Res. 58:4391-4401 (1998)).

9L/P450 cells [4] = details: 1 × 8 hr 1 mM CPA
[5] = human, in vivo; cited from earlier work
9L/P450 cells [6] = test system: 9L/P450 cells; remark: listed apart in the source
[7] = test system: caspase 8 and caspase 9 in CPA-treated 9L/P450 cells; experiment: Caspase 8 and caspase 9 activity in extracts of CPA-treated cells; assay type: cell-based, rat; details: IAP expressed by retroviral transduction, cells treated with 1 mM CPA
Procedure: 9L/P450 cells were infected with retrovirus encoding the IAPs p35 or Survivin. […] Shown in FIG. 1B are the caspase 8 and caspase 9 activities of the individual cell lines (mean+/−half the range for n=2 separate experiments).
Caspase Activity Measurements: Caspase activities were assayed as described previously (Schwartz and Waxman, Mol Pharmacol. 60:1268-1279. (2001)). […] Floating and attached cells were collected, pooled, dissolved in lysis buffer (10 mM Hepes buffer (pH 7.4) containing 2 mM EDTA, 0.1% CHAPS detergent, 5 mM DTT, 350 ng/ml PMSF, 10 ng/ml pepstatin A, 10 ng/ml aprotinin, and 20 ng/ml leupeptin) and then subjected to three freeze-thaw cycles. Lysates were spun and the supernatant (cell extract) was assayed for caspase 3, 8 and 9 activities by incubation with caspase form-selective substrates: Ac-DEVD-AMC (Biomol; cat # P-411) for caspase 3 (Talanian et al., J Biol. Chem. 272:9677-9682 (1997); Thomberry et al., J Biol. Chem. 272:17907-17911 (1997)), LETD-AFC (BioRad; cat# 170-3186) for caspase 8 and Ac-LEHD-AFC (BioRad; cat# 170-3190) for caspase 9.

[8] = three 8 hr treatments with 1 mM CPA

Compound: O=P1(N(CCCl)CCCl)NCCCO1 (stereo not shown) [CPA, cyclophosphamide]
- bystander cell killing (9L/LacZ bystander cells; co-cultured with 9L/P450/p35-9 cells across a permeable membrane, second 8 hr CPA treatment): 70-80%
- bystander cell killing (9L/LacZ bystander cells; co-cultured with CPA-pretreated 9L/P450 cells across a permeable membrane, second CPA treatment): little or no bystander cell killing
- Relative colony formation activity (in parenthesis) (9L/P450/p35-9 cells [1]; No Drug = 100): 2.9 ± 0.9
- Colonies per 10,000 cells (9L/P450/p35-9 cells [1]; mean ± SD n=3): 150 ± 49
- time to death of cells (9L/P450 cells [2]; 1 mM CPA continuously): 3 to 4 days
- cellular response to CPA in the absence of p35 (9L/P450 cells [2]; 1 mM CPA for 72 hr): cytotoxic response
- cell survival (9L/P450 cells [2]; 1 mM CPA for 72 hr, without BSO): 62%
- cell killing (9L/P450 cells [2]; single 8 hr CPA treatment): not sufficient to kill
- day by which all cells died (9L/P450 cells [2]; [8]): 6 to 9 days
- time to death of cells (9L/P450/p35-9 cells [3]; 1 mM CPA continuously): 8 days
- cell killing (9L/P450/p35-9 cells [3]; single 8 hr CPA treatment): not sufficient to kill
- day by which all cells died (9L/P450/p35-9 cells [3]; [8]): ≤ 17 days
- Relative colony formation activity (in parenthesis) (9L/P450 cells [4]; No Drug = 100): 1.1 ± 0.5
- Colonies per 10,000 cells (9L/P450 cells [4]; mean ± SD n=3): 77
- half-life [5]: 8 h

Compound: CCCCS(=N)(=O)CCC(N)C(=O)O (stereo not shown) [BSO, buthionine sulfoximine]
- effect of BSO pretreatment on cell growth (9L/P450 cells [2]): no effect on cell growth
- cell survival (9L/P450 cells [2]; BSO pretreatment (50 μM for 24 hr), then 1 mM CPA for 72 hr): 13%
- decrease in the cell's capacity to produce and release 4-OH-CPA into the culture media (9L/P450 cells [6]): 86%

Compound: hIAP2: human IAP (inhibitor of apoptosis), myc-tagged cDNA, expressed by retroviral transduction
- inhibition of caspase activity [7]: less effective caspase inhibition

Reference: patent US20060057109A1 (priority 2002, published 2006)
